Experimental data published in paper PMC12335596 (Scientific Reports, 2025).

target: urease (JBU; EC 3.5.1.5) (Canavalia ensiformis, UniProt P07374); assay: In vitro urease inhibitory activity; format: biochemical, Jack bean; details: not given
Sequence (P07374 whole entry, looked up): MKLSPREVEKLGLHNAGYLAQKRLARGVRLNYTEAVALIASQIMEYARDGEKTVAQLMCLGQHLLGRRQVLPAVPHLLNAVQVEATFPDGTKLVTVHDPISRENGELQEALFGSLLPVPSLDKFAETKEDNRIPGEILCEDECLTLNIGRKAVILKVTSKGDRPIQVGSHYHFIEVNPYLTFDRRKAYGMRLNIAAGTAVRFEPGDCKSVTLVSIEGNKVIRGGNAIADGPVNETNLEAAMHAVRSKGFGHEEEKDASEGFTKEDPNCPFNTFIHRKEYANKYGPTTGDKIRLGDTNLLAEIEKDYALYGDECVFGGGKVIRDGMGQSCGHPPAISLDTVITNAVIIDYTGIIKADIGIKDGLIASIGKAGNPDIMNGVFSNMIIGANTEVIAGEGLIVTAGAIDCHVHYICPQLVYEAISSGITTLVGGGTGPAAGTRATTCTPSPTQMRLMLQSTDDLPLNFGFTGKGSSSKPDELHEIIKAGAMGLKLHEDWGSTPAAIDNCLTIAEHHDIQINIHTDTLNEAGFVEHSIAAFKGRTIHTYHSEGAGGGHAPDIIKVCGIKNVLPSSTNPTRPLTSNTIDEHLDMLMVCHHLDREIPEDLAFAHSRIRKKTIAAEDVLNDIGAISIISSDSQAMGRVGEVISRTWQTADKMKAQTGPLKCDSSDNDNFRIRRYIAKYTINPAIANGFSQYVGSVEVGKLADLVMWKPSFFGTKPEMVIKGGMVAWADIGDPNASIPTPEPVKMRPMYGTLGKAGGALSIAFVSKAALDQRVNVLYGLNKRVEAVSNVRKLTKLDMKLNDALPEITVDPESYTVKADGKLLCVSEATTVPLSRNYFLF

IC50 | SMILES
0.15 ± 0.09 µM | COc1cc(-c2nc3cc(C(=O)N4CCN(c5ccccc5)CC4)ccc3[nH]2)ccc1OCC(=O)Nc1cccc([N+](=O)[O-])c1 [Compound 9 L, 2-(2-Methoxy-4-(5-(4-phenylpiperazine-1-carbonyl)−1H-benzo[d]imidazol-2-yl)phenoxy)-N-(3-nitrophenyl)acetamide]
2.4 ± 0.36 µM | COc1cc(-c2nc3cc(C(=O)N4CCN(c5ccccc5)CC4)ccc3[nH]2)ccc1OCC(=O)Nc1ccccc1F [Compound 9 h, N-(2-Fluorophenyl)−2-(2-methoxy-4-(5-(4-phenylpiperazine-1-carbonyl)−1H-benzo[d]imidazol-2-yl)phenoxy)acetamide]
0.35 ± 0.34 µM | COc1cc(-c2nc3cc(C(=O)N4CCN(c5ccccc5)CC4)ccc3[nH]2)ccc1OCC(=O)Nc1ccc([N+](=O)[O-])cc1 [Compound 9 m, 2-(2-Methoxy-4-(5-(4-phenylpiperazine-1-carbonyl)−1H-benzo[d]imidazol-2-yl)phenoxy)-N-(4-nitrophenyl)acetamide]
11.1 ± 1.18 µM | COc1cc(-c2nc3cc(C(=O)N4CCN(c5ccccc5)CC4)ccc3[nH]2)ccc1OCC(=O)Nc1ccccc1 [Compound 9a, 2-(2-Methoxy-4-(5-(4-phenylpiperazine-1-carbonyl)−1H-benzo[d]imidazol-2-yl)phenoxy)-N-phenylacetamide]
0.82 ± 0.1 µM | COc1cc(-c2nc3cc(C(=O)N4CCN(c5ccccc5)CC4)ccc3[nH]2)ccc1OCC(=O)Nc1ccccc1C [Compound 9b, 2-(2-Methoxy-4-(5-(4-phenylpiperazine-1-carbonyl)−1H-benzo[d]imidazol-2-yl)phenoxy)-N-(o-tolyl)acetamide]
12.2 ± 1.09 µM | COc1cc(-c2nc3cc(C(=O)N4CCN(c5ccccc5)CC4)ccc3[nH]2)ccc1OCC(=O)Nc1ccc(C)cc1 [Compound 9d, 2-(2-Methoxy-4-(5-(4-phenylpiperazine-1-carbonyl)−1H-benzo[d]imidazol-2-yl)phenoxy)-N-(p-tolyl)acetamide]
1.26 ± 0.06 µM | COc1cc(-c2nc3cc(C(=O)N4CCN(c5ccccc5)CC4)ccc3[nH]2)ccc1OCC(=O)Nc1c(C)cccc1C [Compound 9e, N-(2,6-Dimethylphenyl)−2-(2-methoxy-4-(5-(4-phenylpiperazine-1-carbonyl)−1H-benzo[d]imidazol-2-yl)phenoxy)acetamide]
0.51 ± 0.1 µM | CCc1ccc(NC(=O)COc2ccc(-c3nc4cc(C(=O)N5CCN(c6ccccc6)CC5)ccc4[nH]3)cc2OC)cc1 [Compound 9f, N-(4-Ethylphenyl)−2-(2-methoxy-4-(5-(4-phenylpiperazine-1-carbonyl)−1H-benzo[d]imidazol-2-yl)phenoxy)acetamide]
9.24 ± 0.37 µM | COc1cc(-c2nc3cc(C(=O)N4CCN(c5ccccc5)CC4)ccc3[nH]2)ccc1OCC(=O)Nc1ccccc1Cl [Compound 9i, N-(2-Chlorophenyl)−2-(2-methoxy-4-(5-(4-phenylpiperazine-1-carbonyl)−1H-benzo[d]imidazol-2-yl)phenoxy)acetamide]
2.72 ± 0.07 µM | COc1cc(-c2nc3cc(C(=O)N4CCN(c5ccccc5)CC4)ccc3[nH]2)ccc1OCC(=O)Nc1cccc(Cl)c1 [Compound 9j, N-(3-Chlorophenyl)−2-(2-methoxy-4-(5-(4-phenylpiperazine-1-carbonyl)−1H-benzo[d]imidazol-2-yl)phenoxy)acetamide]
1.78 ± 0.24 µM | COc1cc(-c2nc3cc(C(=O)N4CCN(c5ccccc5)CC4)ccc3[nH]2)ccc1OCC(=O)Nc1ccc(Cl)cc1 [Compound 9k, N-(4-Chlorophenyl)−2-(2-methoxy-4-(5-(4-phenylpiperazine-1-carbonyl)−1H-benzo[d]imidazol-2-yl)phenoxy)acetamide]

same assay, conditions: ratio of IC50 values vs compound 9d

fold more potent than 9d | SMILES
seven-fold | COc1ccc(NC(=O)COc2ccc(-c3nc4cc(C(=O)N5CCN(c6ccccc6)CC5)ccc4[nH]3)cc2OC)cc1 [Compound 9 g, 2-(2-Methoxy-4-(5-(4-phenylpiperazine-1-carbonyl)−1H-benzo[d]imidazol-2-yl)phenoxy)-N-(4-methoxyphenyl)acetamide]

same assay, conditions: ratio of IC50 values, standard thiourea vs compound

fold more potent than standard thiourea (X) | SMILES
two-fold | COc1cc(-c2nc3cc(C(=O)N4CCN(c5ccccc5)CC4)ccc3[nH]2)ccc1OCC(=O)Nc1ccccc1 [Compound 9a, 2-(2-Methoxy-4-(5-(4-phenylpiperazine-1-carbonyl)−1H-benzo[d]imidazol-2-yl)phenoxy)-N-phenylacetamide]

target: Jack bean urease (Canavalia ensiformis, UniProt P07374); assay: Kinetic study, Lineweaver–Burk plot analysis; format: biochemical; details: varying concentrations of inhibitor and urea; Vmax decreased, Km increased
Sequence (P07374 whole entry, looked up): as above

mode of enzyme inhibition | SMILES
mixed inhibitor | COc1cc(-c2nc3cc(C(=O)N4CCN(c5ccccc5)CC4)ccc3[nH]2)ccc1OCC(=O)Nc1cccc([N+](=O)[O-])c1 [Compound 9 L, 2-(2-Methoxy-4-(5-(4-phenylpiperazine-1-carbonyl)−1H-benzo[d]imidazol-2-yl)phenoxy)-N-(3-nitrophenyl)acetamide]
